Where a name gives a salt, the structure may show the parent alone.

Chain of CK2A1 (CK2α/β) (P68400 whole entry, species assumed): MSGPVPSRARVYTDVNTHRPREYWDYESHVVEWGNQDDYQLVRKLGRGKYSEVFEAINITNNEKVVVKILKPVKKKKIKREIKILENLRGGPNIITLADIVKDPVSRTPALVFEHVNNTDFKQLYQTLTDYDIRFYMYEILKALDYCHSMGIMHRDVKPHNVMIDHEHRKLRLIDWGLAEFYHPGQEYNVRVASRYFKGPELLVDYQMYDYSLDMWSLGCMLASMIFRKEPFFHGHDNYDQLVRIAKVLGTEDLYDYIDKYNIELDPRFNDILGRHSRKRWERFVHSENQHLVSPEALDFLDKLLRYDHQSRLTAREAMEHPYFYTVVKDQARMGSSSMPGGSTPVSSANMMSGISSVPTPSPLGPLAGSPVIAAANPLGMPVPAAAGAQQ
Chain of CK2A1 (CK2α/β) (P67870 whole entry partner, species assumed): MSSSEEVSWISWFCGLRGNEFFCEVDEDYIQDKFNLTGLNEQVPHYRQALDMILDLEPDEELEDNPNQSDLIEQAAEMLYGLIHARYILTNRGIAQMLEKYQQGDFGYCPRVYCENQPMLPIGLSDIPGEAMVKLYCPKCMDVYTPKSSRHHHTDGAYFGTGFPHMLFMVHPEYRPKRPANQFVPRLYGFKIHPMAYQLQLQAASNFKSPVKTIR

This assay concerns the target CK2A1 (CK2α/β) (Homo sapiens, UniProt P68400). The assay can be described thus: CK2 kinase assay, CK2A1 (CK2α/β). Type of assay: biochemical. The note with it: Table A; read-out: CK2A1 (CK2α/β) (IC50).
For `CN1CC2(CCN(c3cc(C#N)cc(Nc4nc(NC5CC5)c5ncc(C#N)n5n4)c3Cl)CC2)C1` [Example 798, 2-((2-chloro-5-cyano-3-(2-methyl-2,7-diazaspiro[3.5]nonan-7-yl)phenyl)amino)-4-(cyclopropylamino)imidazo[2,1-f][1,2,4]triazine-7-carbonitrile], the IC50 stood at 1.8 nM.

For the compound `CNC(=O)CN1CC2(CCN(c3cc(C#N)cc(Nc4nc(NC5CC5)c5ncc(C#N)n5n4)c3Cl)CC2)C1` [Example 799, 2-(7-(2-chloro-5-cyano-3-((7-cyano-4-(cyclopropylamino)imidazo[2,1-f][1,2,4]triazin-2-yl)amino)phenyl)-2,7-diazaspiro[3.5]nonan-2-yl)-N-methylacetamide], the IC50 was 2.46 nM.

In the case of `N#Cc1cc(Nc2nc(NC3CC3)c3ncc(C#N)n3n2)c(Cl)c(N2CCC3(CC2)CN(CC(N)=O)C3)c1` [Example 800, 2-(7-(2-chloro-5-cyano-3-((7-cyano-4-(cyclopropylamino)imidazo[2,1-f][1,2,4]triazin-2-yl)amino)phenyl)-2,7-diazaspiro[3.5]nonan-2-yl)acetamide], the IC50 worked out at 2.14 nM.

With `CCN1CC2(CCN(c3cc(C#N)cc(Nc4nc(NC5CC5)c5ncc(C#N)n5n4)c3Cl)CC2)C1` [Example 801, 2-((2-chloro-5-cyano-3-(2-ethyl-2,7-diazaspiro[3.5]nonan-7-yl)phenyl)amino)-4-(cyclopropylamino)imidazo[2,1-f][1,2,4]triazine-7-carbonitrile], the IC50 stood at 2.16 nM.

Turning to `CC(C)(C(N)=O)N1CC2(CCN(c3cc(C#N)cc(Nc4nc(NC5CC5)c5ncc(C#N)n5n4)c3Cl)CC2)C1` [Example 803, 2-(7-(2-chloro-5-cyano-3-((7-cyano-4-(cyclopropylamino)imidazo[2,1-f][1,2,4]triazin-2-yl)amino)phenyl)-2,7-diazaspiro[3.5]nonan-2-yl)-2-methylpropanamide], the IC50 is 2.8 nM.

Regarding `N#Cc1cc(Nc2nc(NC3CC3)c3ncc(C#N)n3n2)c(Cl)c(N2CCC3(CC2)CN(CC(=O)N2CCNCC2)C3)c1` [Example 804], the IC50 amounted to 1.7 nM.

For the compound `N#Cc1cc(Nc2nc(NC3CC3)c3ncc(C#N)n3n2)c(Cl)c(N2CCC3(CC2)CN(Cc2ccc[nH]c2=O)C3)c1` [Example 805, 2-((2-chloro-5-cyano-3-(2-((2-oxo-1,2-dihydropyridin-3-yl)methyl)-2,7-diazaspiro[3.5]nonan-7-yl)phenyl)amino)-4-(cyclopropylamino)imidazo[2,1-f][1,2,4]triazine-7-carbonitrile], the IC50 was 5.35 nM.

With `CC(=O)N1CCC2(CC1)CN(c1cc(C#N)cc(Nc3nc(NC4CC4)c4ncc(C#N)n4n3)c1Cl)C2` [Example 806, 2-((3-(7-acetyl-2,7-diazaspiro[3.5]nonan-2-yl)-2-chloro-5-cyanophenyl)amino)-4-(cyclopropylamino)imidazo[2,1-f][1,2,4]triazine-7-carbonitrile], the IC50 stood at 0.84 nM.

Turning to `CCNc1nc(Nc2cc(C#N)cc(N3CC[C@@H](NC(=O)OC)[C@H](OC(=O)[C@@H](N)CCCNC(=N)N)C3)c2Cl)nn2c(C#N)cnc12` [Example 808, (S)-(3R,4R)-1-(2-chloro-5-cyano-3-((7-cyano-4-(ethylamino)imidazo[2,1-f][1,2,4]triazin-2-yl)amino)phenyl)-4-((methoxycarbonyl)amino)piperidin-3-yl 2-amino-5-guanidinopentanoate trihydrochloride], the IC50 is 0.44 nM.

Consider `CCNc1nc(Nc2cc(C#N)cc(N3CC[C@@H](NC(=O)OC)[C@H](OC(=O)[C@@H](N)Cc4cnc[nH]4)C3)c2Cl)nn2c(C#N)cnc12` [Example 809, (S)-(3R,4R)-1-(2-chloro-5-cyano-3-((7-cyano-4-(ethylamino)imidazo[2,1-f][1,2,4]triazin-2-yl)amino)phenyl)-4-((methoxycarbonyl)amino)piperidin-3-yl 2-amino-3-(1H-imidazol-5-yl)propanoate dihydrochloride], for which the IC50 was 1 nM.

As to `CCNc1nc(Nc2cc(C#N)cc(N3CC[C@@H](NC(=O)OC)[C@H](OC(=O)[C@@H](N)[C@@H](C)O)C3)c2Cl)nn2c(C#N)cnc12` [Example 810, (2S,3R)-(3R,4R)-1-(2-chloro-5-cyano-3-((7-cyano-4-(ethylamino)imidazo[2,1-f][1,2,4]triazin-2-yl)amino)phenyl)-4-((methoxycarbonyl)amino)piperidin-3-yl 2-amino-3-hydroxybutanoate hydrochloride], the IC50 was 3.82 nM.

As for `CCNc1nc(Nc2cc(C#N)cc(N3CC[C@@H](NC(=O)OC)[C@H](OC(=O)[C@@H](N)CCCN)C3)c2Cl)nn2c(C#N)cnc12` [Example 811, (S)-(3R,4R)-1-(2-chloro-5-cyano-3-((7-cyano-4-(ethylamino)imidazo[2,1-f][1,2,4]triazin-2-yl)amino)phenyl)-4-((methoxycarbonyl)amino)piperidin-3-yl 2,5-diaminopentanoate dihydrochloride], the IC50 worked out at 1.88 nM.

With `CCNc1nc(Nc2cc(C#N)cc(N3CC[C@@H](NC(=O)OC)[C@H](OC(=O)[C@@H](N)CCN)C3)c2Cl)nn2c(C#N)cnc12` [Example 812, (S)-(3R,4R)-1-(2-chloro-5-cyano-3-((7-cyano-4-(ethylamino)imidazo[2,1-f][1,2,4]triazin-2-yl)amino)phenyl)-4-((methoxycarbonyl)amino)piperidin-3-yl 2,4-diaminobutanoate dihydrochloride], the IC50 came out at 4.61 nM.

With `CCNc1nc(Nc2cc(C#N)cc(N3CC[C@@H](NC(=O)OC)[C@H](OC(=O)[C@@H]4CCCN4)C3)c2Cl)nn2c(C#N)cnc12` [Example 813, (S)-(3R,4R)-1-(2-chloro-5-cyano-3-((7-cyano-4-(ethylamino)imidazo[2,1-f][1,2,4]triazin-2-yl)amino)phenyl)-4-((methoxycarbonyl)amino)piperidin-3-yl pyrrolidine-2-carboxylate hydrochloride], the IC50 is 4.48 nM.

In the case of `CCNc1nc(Nc2cc(C#N)cc(N3CC[C@@H](NC(=O)OC)[C@H](OC(=O)CC[C@H](N)C(=O)OC)C3)c2Cl)nn2c(C#N)cnc12` [Example 814, (S)-5-((3R,4R)-1-(2-chloro-5-cyano-3-((7-cyano-4-(ethylamino)imidazo[2,1-f][1,2,4]triazin-2-yl)amino)phenyl)-4-((methoxycarbonyl)amino)piperidin-3-yl) 1-methyl 2-aminopentanedioate hydrochloride], the IC50 turned out to be 24.9 nM.

For `CCNc1nc(Nc2cc(C#N)cc(N3CC[C@@H](NC(=O)OC)[C@H](OC(=O)C[C@H](N)C(=O)OC(C)(C)C)C3)c2Cl)nn2c(C#N)cnc12` [Example 815, (S)-1-tert-butyl 4-((3R,4R)-1-(2-chloro-5-cyano-3-((7-cyano-4-(ethylamino)imidazo[2,1-f][1,2,4]triazin-2-yl)amino)phenyl)-4-((methoxycarbonyl)amino)piperidin-3-yl) 2-aminosuccinate hydrochloride], the IC50 turned out to be 18.7 nM.

For the compound `CCNc1nc(Nc2cc(C#N)cc(N3CC[C@@H](NC(=O)OC)[C@H](OC(=O)CCCCN)C3)c2Cl)nn2c(C#N)cnc12` [Example 816, (3R,4R)-1-(2-chloro-5-cyano-3-((7-cyano-4-(ethylamino)imidazo[2,1-f][1,2,4]triazin-2-yl)amino)phenyl)-4-((methoxycarbonyl)amino)piperidin-3-yl 5-aminopentanoate hydrochloride], the IC50 was 5.2 nM.

Consider `CCNc1nc(Nc2cc(C#N)cc(N3CC[C@@H](NC(=O)OC)[C@H](OC(=O)CCCN)C3)c2Cl)nn2c(C#N)cnc12` [Example 817, (3R,4R)-1-(2-chloro-5-cyano-3-((7-cyano-4-(ethylamino)imidazo[2,1-f][1,2,4]triazin-2-yl)amino)phenyl)-4-((methoxycarbonyl)amino)piperidin-3-yl 4-aminobutanonate hydrochloride], for which the IC50 was determined as 5.05 nM.

Consider `CCNc1nc(Nc2cc(C#N)cc(N3CC[C@@H](NC(=O)OC)[C@H](OC(=O)[C@H](N)CC(N)=O)C3)c2Cl)nn2c(C#N)cnc12` [Example 818, (R)-(3R,4R)-1-(2-chloro-5-cyano-3-((7-cyano-4-(ethylamino)imidazo[2,1-f][1,2,4]triazin-2-yl)amino)phenyl)-4-((methoxycarbonyl)amino)piperidin-3-yl 2,4-diamino-4-oxobutanoate hydrochloride], for which the IC50 came to 2.49 nM.

On to `CCNc1nc(Nc2cc(C#N)cc(N3CC[C@@H](NC(=O)OC)[C@H](OC(=O)C[C@@H](N)CC(C)C)C3)c2Cl)nn2c(C#N)cnc12` [Example 819, (S)-(3R,4R)-1-(2-chloro-5-cyano-3-((7-cyano-4-(ethylamino)imidazo[2,1-f][1,2,4]triazin-2-yl)amino)phenyl)-4-((methoxycarbonyl)amino)piperidin-3-yl 3-amino-5-methylhexanoate hydrochloride], for which the IC50 turned out to be 5.81 nM.

`CCNc1nc(Nc2cc(C#N)cc(N3CC[C@@H](NC(=O)OC)[C@H](OC(=O)C[C@H]4CC[C@H](N)CC4)C3)c2Cl)nn2c(C#N)cnc12` [Example 820, (3R,4R)-1-(2-chloro-5-cyano-3-((7-cyano-4-(ethylamino)imidazo[2,1-f][1,2,4]triazin-2-yl)amino)phenyl)-4-((methoxycarbonyl)amino)piperidin-3-yl 2-((1r,4R)-4-aminocyclohexyl)acetate hydrochloride]: the IC50 amounted to 5.96 nM.

Consider `CCNc1nc(Nc2cc(C#N)cc(N3CC[C@@H](NC(=O)OC)[C@H](OC(=O)CNC(=O)[C@H](C)N)C3)c2Cl)nn2c(C#N)cnc12` [Example 821, (3R,4R)-1-(2-chloro-5-cyano-3-((7-cyano-4-(ethylamino)imidazo[2,1-f][1,2,4]triazin-2-yl)amino)phenyl)-4-((methoxycarbonyl)amino)piperidin-3-yl 2-((S)-2-aminopropanamido)acetate hydrochloride], for which the IC50 came to 2.72 nM.

With `CCNc1nc(Nc2cc(C#N)cc(N3CC[C@@H](NC(=O)OC)[C@H](OC(=O)[C@@H](NC(=O)[C@@H](N)CCCCN)C(C)C)C3)c2Cl)nn2c(C#N)cnc12` [Example 822, (S)-(3R,4R)-1-(2-chloro-5-cyano-3-((7-cyano-4-(ethylamino)imidazo[2,1-f][1,2,4]triazin-2-yl)amino)phenyl)-4-((methoxycarbonyl)amino)piperidin-3-yl 2-((S)-2,6-diaminohexanamido)-3-methylbutanoate dihydrochloride], the IC50 came out at 1.74 nM.

For the origin of these results see US9273057B2 (Bristol-Myers Squibb Company, priority 2012, dated 2016).
